Patent publication US20150093821A1, “BIODEGRADABLE POLYURETHANES AND USE THEREOF” (CARNEGIE MELLON UNIVERSITY, priority 2003, published 2015)

How the values were obtained:
[1] = system: collagen type I in GFP-MBMC; assay: Collagen type I production (Sirius Red F3B); type: cell-based, mouse; conditions: after 7 days culture, P<0.005
Experimental: Soluble calf skin collagen type I was used for the standard curves run with each assay (see FIG. 14). […] Three individual experiments were performed for type I collagen. The results were presented as the mean±standard deviation (n=3).

[2] = system: type I collagen of GFP-MBMC; assay: Western blot analysis for type I collagen; type: cell-based, mouse; conditions: two weeks of culture
Experimental: After two weeks of culture, the cells were harvested with Trypsin, subjected to a centrifuge and washed once with PBS. Thereafter, the lysis buffer/CLAP solution was added to the cells (Lysis buffer: 0.187 g HEPE, 0.4235 g NaCl, 0.001 g MgCl2 and 0.19 g EGTA dissolved in 50 ml PBS. CLAP solution: 4 μl each of chymostatin, leupeptin, antipain and pepstatin A in 100 μl PBS. Lysis buffer/CLAP solution: 100 μl CLAP solution added to 6.6 ml Lysis buffer). To assure complete rupture of the cells, the tubes were stored at −20° C. for 12 hrs. Total protein concentration was quantified using the BCA protein assay kit (Fisher Scientific, USA), which measured the light absorbance at 562 nm verses a standard curve on a microplate reader.
The protein obtained as described above was re-suspended in Laemmli sample buffer, followed by protein separation on an SDS-10% polyacrylamide gel. Western blotting was performed as described previously. […]
To ensure that equal amount of total protein was loaded to the membrane, GAPDH (glycerealdehyde-3-phosphate dehydrogenase) was detected using rat-anti-mouse GAPDH antibody (ICN Biochemicals, USA) followed by peroxidase-conjugated rabbit-anti-rat IgG antibody (E.Y. Laboratories, Inc. USA). […] Molecular weights of the proteins were determined using prestained molecular weight standards (14,300-200,000 molecular weight range; GIBCO BRL). […]

[3] = system: alkaline phosphatase activity of mouse bone cells (OPC); assay: Alkaline phosphatase activity of OPC with bioactive reagents or polymer foams; type: cell-based; conditions: 4 weeks, OD at 405 nm, medium with or without polymer, FIG. 5
Experimental: Bioactive polymers containing covalently bound dexamethasone and β-glycerophosphate were also synthesized and studied for potential use as bone scaffolds. In several studies, mouse bone cells (OPC) (9.6×10^4/well) were cultured in a 6-well tissue culture plate without polymer foam (blank column) with Dulbecoo's modified Eagle's medium only (DMEM); with 5 mM β-glycerophosphate (β-GP); with 100 nM dexamethasone (Dex); 50 μM ascorbic acid (Vc); with 50 μM ascorbic acid and 5 mM β-glycerophosphate (Vc+β-GP); with 50 μM ascorbic acid and 100 nM dexamethasone (Vc+Dex); with 50 μM ascorbic acid, 100 nM dexamethasone and 5 mM β-glycerophosphate (Vc+Dex+β-GP) for 4 weeks.
The same cells were cultured in a 6-well plate with the LDI-PEG400-glucose polymer (red column) using DMEM only. The polymer foams were synthesized with lysine ethyl ester diisocyanate (LDI), glucose and PEG only (DMEM); with LDI, glucose, PEG and β-glycerophosphate (β-GP); with LDI, glucose, PEG and dexamethasone (Dex); with LDI, glucose, PEG and ascorbic acid (Vc); with LDI, glucose, PEG, ascorbic acid and β-glycerophosphate (Vc+β-GP); with LDI, glucose, PEG, ascorbic acid and dexamethasone (Vc+Dex); and with LDI, glucose, PEG, ascorbic acid, 3-glycerophosphate and dexamethasone (Vc+Dex+β-GP). […] The alkaline phosphatase activity was determined by the OD at 405 nm in the medium with or without polymer. […]

| SMILES | concentration of collagen type I relative to LDI-glycerol-PEG scaffold or tissue culture plate [1] | type I collagen secreted (Western blotting) [2] | alkaline phosphatase activity of OPC [3] |
| --- | --- | --- | --- |
| O=C1O[C@H]([C@@H](O)CO)C(O)=C1O [ascorbic acid] | two times higher | higher concentrations | significantly increased |
| O=P(O)(O)OC(CO)CO [β-glycerophosphate] |  |  | more moderately |
